This note sets out measurements from patent publication US9321760B2 (Merck Patent GmbH, priority 2011, dated 2016).

The assay deals with P70S6K (T412E mutant) (Homo sapiens (Human), UniProt P23443, T412E). As to the kind of experiment: P70S6K enzyme assay. Format: biochemical. The conditions noted are these: 3 nM P70S6K T412E mutant, 24 μM ATP, 1 μM FITC-AHA-AKRRRLSSLRA-OH substrate peptide, 90 min at 25° C. A digest of the protocol:
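IC50s come from mobility-shift separation of phospho-product from FITC-AHA-AKRRRLSSLRA-OH substrate (1 μM) after the reaction was quenched with 10 mM EDTA. The reaction used 3 nM T412E-mutant enzyme and 24 μM ATP, running 90 min at 25° C in 100 mM Hepes pH 7.5 buffer.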

Sequence of P70S6K (T412E mutant) (P23443 whole entry T412E): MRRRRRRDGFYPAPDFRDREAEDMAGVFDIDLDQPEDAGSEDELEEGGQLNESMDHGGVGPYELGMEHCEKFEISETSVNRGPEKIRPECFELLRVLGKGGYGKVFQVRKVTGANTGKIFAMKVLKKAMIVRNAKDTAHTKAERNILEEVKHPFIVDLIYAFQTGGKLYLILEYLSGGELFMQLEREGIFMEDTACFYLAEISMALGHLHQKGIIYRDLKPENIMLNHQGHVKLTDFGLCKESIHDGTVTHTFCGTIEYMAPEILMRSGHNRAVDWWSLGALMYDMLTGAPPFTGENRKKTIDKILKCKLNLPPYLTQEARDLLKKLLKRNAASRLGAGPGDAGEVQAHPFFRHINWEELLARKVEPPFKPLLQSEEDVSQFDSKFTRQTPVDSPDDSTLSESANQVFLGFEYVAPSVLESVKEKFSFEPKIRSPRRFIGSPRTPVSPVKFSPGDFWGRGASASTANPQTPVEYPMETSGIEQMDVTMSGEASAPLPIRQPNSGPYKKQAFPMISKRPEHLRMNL

The IC50 is the concentration that inhibits the measured activity by half. For `C[C@H](NC(=O)C1(N)CCN(c2ncnc(N)c2C#N)CC1)c1ccc(Cl)cc1` [Example 218, 4-Amino-1-(6-amino-5-cyano-pyrimidin-4-yl)-piperidine-4-carboxylic acid [(S)-1-(4-chloro-phenyl)-ethyl]-amide], the half-maximal inhibitory concentration (IC50) was found to be 200 nM. This lies in the sub-micromolar range.
As for `CC[C@H](NC(=O)C1(N)CCN(c2ncnc(N)c2C#N)CC1)c1ccc(Cl)cc1` [Example 219, 4-Amino-1-(6-amino-5-cyano-pyrimidin-4-yl)-piperidine-4-carboxylic acid [(S)-1-(4-chloro-phenyl)-propyl]-amide], the figure is 140 nM; as for `N#Cc1c(N)ncnc1N1CCC(N)(C(=O)N[C@H](c2ccc(Cl)cc2)C(F)(F)F)CC1` [Example 220], 3200 nM; as for `N#Cc1c(N)ncnc1N1CCC(N)(C(=O)N[C@@H](CC(N)=O)c2ccc(Cl)cc2)CC1` [Example 221, 4-Amino-1-(6-amino-5-cyano-pyrimidin-4-yl)-piperidine-4-carboxylic acid [(S)-2-carbamoyl-1-(4-chloro-phenyl)-ethyl]-amide], 140 nM.
The result for `C[C@H](NC(=O)C1(N)CCN(c2ncnc(N)c2Cl)CC1)c1ccc(Cl)cc1` [Example 222, 4-Amino-1-(6-amino-5-chloro-pyrimidin-4-yl)-piperidine-4-carboxylic acid [(S)-1-(4-chloro-phenyl)-ethyl]-amide] reads 620 nM; that for `Nc1ncnc(N2CCC(N)(C(=O)N[C@@H](CCO)c3ccc(C(F)(F)F)cc3)CC2)c1Cl` [Example 223, 4-Amino-1-(6-amino-5-chloro-pyrimidin-4-yl)-piperidine-4-carboxylic acid [(S)-3-hydroxy-1-(4-trifluoromethyl-phenyl)-propyl]-amide], 22000 nM; that for `C[C@H](NC(=O)C1(N)CCN(c2ncnc(N)c2-c2cn[nH]c2)CC1)c1ccc(Cl)cc1` [Example 224, 4-Amino-1-[6-amino-5-(1H-pyrazol-4-yl)-pyrimidin-4-yl]-piperidine-4-carboxylic acid [(S)-1-(4-chloro-phenyl)-ethyl]-amide], 87 nM.
The result for `CC[C@H](NC(=O)C1(N)CCN(c2ncnc(N)c2-c2cn[nH]c2)CC1)c1ccc(Cl)cc1` [Example 225, 4-Amino-1-[6-amino-5-(1H-pyrazol-4-yl)-pyrimidin-4-yl]-piperidine-4-carboxylic acid [(S)-1-(4-chloro-phenyl)-propyl]-amide] reads 78 nM; that for `N#Cc1c(N)ncnc1N1CCC(N)(C(=O)N[C@@H](CCO)c2ccccc2)CC1` [Example 226, 4-Amino-1-(6-amino-5-cyano-pyrimidin-4-yl)-piperidine-4-carboxylic acid ((S)-3-hydroxy-1-phenyl-propyl)-amide], 820 nM.
`Cc1ccc([C@H](CCO)NC(=O)C2(N)CCN(c3ncnc(N)c3C#N)CC2)cc1` [Example 227, 4-Amino-1-(6-amino-5-cyano-pyrimidin-4-yl)-piperidine-4-carboxylic acid ((S)-3-hydroxy-1-p-tolyl-propyl)-amide] returned an IC50 of 280 nM.
Consider `Nc1ncnc(N2CCC(N)(C(=O)N[C@@H](CCO)c3ccccc3)CC2)c1Cl` [Example 228, 4-Amino-1-(6-amino-5-chloro-pyrimidin-4-yl)-piperidine-4-carboxylic acid ((S)-3-hydroxy-1-phenyl-propyl)-amide], for which the IC50 was 2800 nM.
For the compound `COc1ccc([C@H](CCO)NC(=O)C2(N)CCN(c3ncnc(N)c3C#N)CC2)cc1` [Example 229, 4-Amino-1-(6-amino-5-cyano-pyrimidin-4-yl)-piperidine-4-carboxylic acid [(S)-3-hydroxy-1-(4-methoxy-phenyl)-propyl]-amide], half-maximal inhibition (IC50) was put at 450 nM.
The result for `N#Cc1c(N)ncnc1N1CCC(N)(C(=O)N[C@@H](CCO)c2ccc(C(F)(F)F)cc2)CC1` [Example 230, 4-Amino-1-(6-amino-5-cyano-pyrimidin-4-yl)-piperidine-4-carboxylic acid [(S)-3-hydroxy-1-(4-trifluoromethyl-phenyl)-propyl]-amide] reads 18000 nM.
`N#Cc1c(N)ncnc1N1CCC(N)(C(=O)N[C@@H](CCO)c2ccncc2)CC1` [Example 231, 4-Amino-1-(6-amino-5-cyano-pyrimidin-4-yl)-piperidine-4-carboxylic acid ((S)-3-hydroxy-1-pyridin-4-yl-propyl)-amide] had a half-inhibitory concentration (IC50) of 3600 nM.
The result for `Cc1ccc([C@H](CCO)NC(=O)C2(N)CCN(c3ncnc(N)c3C(N)=O)CC2)cc1` [Example 232, 4-Amino-6-[4-amino-4-((S)-3-hydroxy-1-p-tolyl-propylcarbamoyl)-piperidin-1-yl]-pyrimidine-5-carboxylic acid amide] reads 23000 nM.
As for `NC(=O)c1c(N)ncnc1N1CCC(N)(C(=O)N[C@@H](CCO)c2ccc(C(F)(F)F)cc2)CC1` [Example 233, 4-Amino-6-{4-amino-4-[(S)-3-hydroxy-1-(4-trifluoromethyl-phenyl)-propylcarbamoyl]-piperidin-1-yl}-pyrimidine-5-carboxylic acid amide], the figure is 41000 nM; as for `COC[C@H](NC(=O)C1(N)CCN(c2ncnc(N)c2Cl)CC1)c1ccc(Cl)cc1` [Example 234, 4-Amino-1-(6-amino-5-chloro-pyrimidin-4-yl)-piperidine-4-carboxylic acid [(R)-1-(4-chloro-phenyl)-2-methoxy-ethyl]-amide], 560 nM; as for `Nc1ncnc(N2CCC(N)(C(=O)N[C@@H](CCO)c3ccc(Cl)cc3)CC2)c1Cl` [Example 235, 4-Amino-1-(6-amino-5-chloro-pyrimidin-4-yl)-piperidine-4-carboxylic acid [(S)-1-(4-chloro-phenyl)-3-hydroxy-propyl]-amide], 250 nM.
As for `Nc1ncnc(N2CCC(N)(C(=O)N[C@@H](CCO)c3ccc(F)cc3)CC2)c1Cl` [Example 236, 4-Amino-1-(6-amino-5-chloro-pyrimidin-4-yl)-piperidine-4-carboxylic acid [(S)-1-(4-fluoro-phenyl)-3-hydroxy-propyl]-amide], the figure is 900 nM; as for `Cc1ccc([C@H](CCO)NC(=O)C2(N)CCN(c3ncnc(N)c3Cl)CC2)cc1` [Example 237, 4-Amino-1-(6-amino-5-chloro-pyrimidin-4-yl)-piperidine-4-carboxylic acid ((S)-3-hydroxy-1-p-tolyl-propyl)-amide], 860 nM; as for `COc1ccc([C@H](CCO)NC(=O)C2(N)CCN(c3ncnc(N)c3Cl)CC2)cc1` [Example 238, 4-Amino-1-(6-amino-5-chloro-pyrimidin-4-yl)-piperidine-4-carboxylic acid [(S)-3-hydroxy-1-(4-methoxy-phenyl)-propyl]-amide], 380 nM.
As to `Nc1ncnc(N2CCC(N)(C(=O)N[C@@H](CCO)c3ccncc3)CC2)c1Cl` [Example 239, 4-Amino-1-(6-amino-5-chloro-pyrimidin-4-yl)-piperidine-4-carboxylic acid ((S)-3-hydroxy-1-pyridin-4-yl-propyl)-amide], the half-maximal inhibitory concentration (IC50) is 7200 nM.
As for `COC[C@H](NC(=O)C1(N)CCN(c2ncnc(N)c2-c2cn[nH]c2)CC1)c1ccc(Cl)cc1` [Example 240, 4-Amino-1-[6-amino-5-(1H-pyrazol-4-yl)-pyrimidin-4-yl]-piperidine-4-carboxylic acid [(R)-1-(4-chloro-phenyl)-2-methoxy-ethyl]-amide], the figure is 100 nM; as for `COC[C@H](NC(=O)C1(N)CCN(c2ncnc(N)c2C#N)CC1)c1ccc(Cl)cc1` [Example 241, 4-Amino-1-(6-amino-5-cyano-pyrimidin-4-yl)-piperidine-4-carboxylic acid [(R)-1-(4-chloro-phenyl)-2-methoxy-ethyl]-amide], 210 nM.
In the case of `N#Cc1c(N)ncnc1N1CCC(N)(C(=O)N[C@@H](CCO)c2ccc(Cl)cc2)CC1` [Example 242, 4-Amino-1-(6-amino-5-cyano-pyrimidin-4-yl)-piperidine-4-carboxylic acid [(S)-1-(4-chloro-phenyl)-3-hydroxy-propyl]-amide], the half-inhibitory concentration (IC50) stood at 98 nM.
As for `N#Cc1c(N)ncnc1N1CCC(N)(C(=O)N[C@@H](CCO)c2ccc(F)cc2)CC1` [Example 243, 4-Amino-1-(6-amino-5-cyano-pyrimidin-4-yl)-piperidine-4-carboxylic acid [(S)-1-(4-fluoro-phenyl)-3-hydroxy-propyl]-amide], the figure is 390 nM; as for `C[C@H](NC(=O)C1(N)CCN(c2ncnc(N)c2C(N)=O)CC1)c1ccc(Cl)cc1` [Example 244, 4-Amino-6-{4-amino-4-[(S)-1-(4-chloro-phenyl)-ethylcarbamoyl]-piperidin-1-yl}-pyrimidine-5-carboxylic acid amide], 20000 nM.
The result for `CC[C@H](NC(=O)C1(N)CCN(c2ncnc(N)c2C(N)=O)CC1)c1ccc(Cl)cc1` [Example 245, 4-Amino-6-{4-amino-4-[(S)-1-(4-chloro-phenyl)-propylcarbamoyl]-piperidin-1-yl}-pyrimidine-5-carboxylic acid amide] reads 2400 nM; that for `COC[C@H](NC(=O)C1(N)CCN(c2ncnc(N)c2C(N)=O)CC1)c1ccc(Cl)cc1` [Example 246, 4-Amino-6-{4-amino-4-[(R)-1-(4-chloro-phenyl)-2-methoxy-ethylcarbamoyl]-piperidin-1-yl}-pyrimidine-5-carboxylic acid amide], 5000 nM; that for `NC(=O)c1c(N)ncnc1N1CCC(N)(C(=O)N[C@@H](CCO)c2ccc(Cl)cc2)CC1` [Example 247], 3600 nM.
As for `Nc1ncnc(N2CC[C@@](N)(CNC(=O)c3ccc(F)cc3F)C2)c1-c1ccc(F)cc1` [Example 248, N—{(R)-3-Amino-1-[6-amino-5-(4-fluoro-phenyl)-pyrimidin-4-yl]-pyrrolidin-3-ylmethyl}-2,4-difluoro-benzamide], the figure is 290 nM.
